# Patent US11840495B2, “Compositions and methods related to di-substituted bicyclo[2.2.1] heptanamine-containing compounds” (The Broad Institute, Inc., priority 2020, dated 2023)
# Counter-ions that a name gives are not always drawn. Like-named read-outs stand apart in the source and are kept apart here.
# What was measured:
# MUC1-fs = experiment: Immunofluorescence imaging of MUC1-fs in P cells (Example 2); assay type: cell-based; settings: for EC50: 48 hr incubation, MUC1-fs; for ECMax (%): DMSO = 0, JQ1 (250 nM) = −100% activity
# Outline: (§1)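 P cells were treated for 48 h with 5-dose (35–0.0035 μM) or 10-dose (16–0.0008 μM) series, in duplicate. Fixed cells were immunostained for MUC1-fs, MUC1-wt, GM130 and Hoechst nuclei. Per-cell cytoplasmic intensity was normalized with DMSO as 0% and JQ1 (250 nM) as −100%; cell number was normalized to DMSO.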
# MUC1-wt = experiment: Immunofluorescence imaging of MUC1-wt in P cells (Example 2); assay type: cell-based; settings: for EC50: 48 hr incubation, MUC1-wt; for WT ECMax (%): DMSO = 0, JQ1 (250 nM) = −100% activity
# Outline: as §1
# [1] = Test agent stability on storage; assay type: physicochemical; settings: storage 4° C.; refrigerated and room temperature
# P cells = experiment: in vitro cellular potency of TA compounds determined in P cells; assay type: cell-based
# NUCB1 = experiment: Automated fixation/staining imaging assay, NUCB1 intensity (Example 3); assay type: cell-based; settings: 48 hour treatment time; for NUCB1 Intensity Avg Emax: in % (unit assumed)
# Text: (§2) Prepared Renal Life Media by adding the supplements provided in the kit, substituting the FBS provided with Tet system approved FBS, and filtering the media (not including provided kit antibiotics). Thawed P6 vial(s) into T175 flasks 2 weeks prior to screening. Cells have to be passaged at least once after thaw before they can be used for screening. Hyperflasks can be used depending on the cell number needed. One confluent T175 flask should give at least 25 million cells. Cells should not be split beyond 1:2-1:4 and should only be trypsinized 1×/week. Cells must be spun down after each typsinization. Flasks must be confluent at time of plating. Flasks were incubated at 37° C., 5% CO2, 98% humidity. Cells can only be cultured for up to 10 passages before a new vial will need to be thawed.
# (§3) • Day 1: Cells are plated. • Day 2: Compounds are transferred into assay plates with Echo (24 hours post-seeding) • Day 3: Begin preparing reagents for fixation and staining. • Day 4: Plates are fixed and stained (48 hour treatment time) on automated system and subsequently imaged on Opera Phenix. • Day 5: Data analysis and reporting is performed. Plate Preparation:
# (§4) Calculated cell number needed and media volume needed for the run (MAX 20 plates/run). Cells were seeded into Synthemax-coated 384-well Cell Carrier plates at a density of 12,000 cells/well in 40 ul of Renal Life Media/well. Calculated for an extra 2-3 plate volumes to account for volume needed to fill the Combi cassette lines and left dead volume of cell suspension. (20 ul added with Combi after compound addition for total 60 ul assay volume, due to volume constraints of Echo transfer process). Trypsinized cells with 3 ml/T175 flask of TrypLE™ Express Enzyme 1X. Then spun down cells and resuspend in 10 ml media. Counted the cells using Nexcelom Cellometer K2. Prepared a mixture of 20 ul cell suspension/20 ul Cellometer AOPI Stain (#CS2-0106) and then add 20 ul of the 2 fold diluted mixture onto a Cellometer slide. Counted the cells by using the Dual Stain option and following the prompts. Recorded the live cell density, viability, and current passage number and date in notebook. Used the live cell density in calculating how to prepare the cell seeding suspension. Mixed the cell suspension thoroughly but gently. Once Combi cassette cleaned and cell suspension was made, dispensed 40 ul of cell suspension per well into the Synthemax-coated Cell Carrier assay plates. Immediately after seeding, stored the assay plates in the Liconic Incubator on the enclosed system in the 3100 automation lab, spaced plates out every other slot in stackers to maximize air flow.
# (§5) Generated Arxspan Run ID to record compound transfer in CBIP. Spun down compound plates and assay plates 2000 RPM 10 sec. Load assay plates into Echo system incubator. Coordinated plate locations and record RUN ID with automation team member. Ran protocol for 100 nl transfer according to designated plate layout/template. When run was completed, added 20 ul of media/well for all assay plates with Combi in hood in Tissue culture room. Returned plates to the incubator in the enclosed system for 48 hour treatment time.
# (§6) Heated up solution (100° C. on stir plate) and dissolved Roche Blocking reagent by stirring. The resulting solution was cloudy. Stored at 4° C. and used within one week or froze aliquots at −20° C. Combi 4: 1° Antibody Cocktail: Prepared the day of experiment. Swirled to mix. […] Prepared solution in Corning 250 ml conical flask and covered with tinfoil to protect from light.
# (§7) Combi 5: 2° Antibody Cocktail: Prepared the day of experiment. Swirlrf to mix. […] Prepared solution in Corning 250 ml conical flask and covered with tinfoil to protect from light.
# (§8) Removed media using BioTek plate washer. (PEKASP62) Moved plates to Combi. Combi 1. Dispensed 40 μl of 4% PFA (Combi on MEDIUM Speed). Incubated plates 20 minutes. Washed two times on BioTek plate washer. (PEK26X2)
# (§9) Moved plates to Combi. Combi 2. […]
# FS MUC1 = experiment: Automated fixation/staining imaging assay, FS MUC1 spot cytoplasm (Example 3); assay type: cell-based; settings: 48 hour treatment time; for FS MUC1 Spot Cytoplasm Avg Emax: in % (unit assumed)
# Text: as §2, §3, §4, §5, §6, §7, §8, §9
# [2] = 48 hr, DMSO = 0, JQ1 = −100% activity, in %
EC50 (MUC1-fs; read-out: EC50(Spot)) [nM],EC50 (MUC1-wt; read-out: WT EC50 (Cytoplasm)) [nM],EC50 (P cells) [nM],EC50 (NUCB1) [nM],IC50 (FS MUC1) [nM],EC50 (MUC1-fs; read-out: EC50) [nM],EC50 (MUC1-wt; read-out: WT EC50) [nM],Compound,ECMax (%) (MUC1-fs; 48 hr),WT ECMax (%) (MUC1-wt; 48 hr),Stability/expiration date [1],NUCB1 Intensity Avg Emax (NUCB1),FS MUC1 Spot Cytoplasm Avg Emax (FS MUC1),Emax (MUC1-fs; [2]),WT EMax (MUC1-wt; [2])
,,,14600,2940,,,"CC(C)[C@H]1[C@@H]2CC[C@@H](C2)[C@]1(C)N (single isomer, unassigned) [Compound 259]",,,,−53,−59.03,,
,,,9770,5870,,,"CC(C)[C@@H]1[C@@H]2CC[C@@H](C2)[C@]1(C)N (single isomer, unassigned) [Compound 258]",,,,−89.37,−67.73,,
20,> 1800,14,,,,,"CC[C@@]1(C)[C@@H]2CC[C@@H](C2)[C@@H]1N (single isomer, unassigned) [Compound 202-P2]",−76,~175,Stable when refrigerated and at room temperature for few hours,,,,
40,2600,46,,,,,"CC[C@]1(C)[C@@H]2CC[C@@H](C2)[C@@H]1N (single isomer, unassigned) [Compound 203-P2]",−75,95,Stable when refrigerated and at room temperature for few hours,,,,
40,4040,26,,,,,"CC[C@]1(C)[C@H]2CC[C@H](C2)[C@H]1N (single isomer, unassigned) [Compound 202-P1]",−77.14,~150,Stable when refrigerated and at room temperature for few hours,,,,

# The next lines start with the compound.
Compound,EC50 (MUC1-fs; read-out: EC50(Spot)) [nM],EC50 (MUC1-wt; read-out: WT EC50 (Cytoplasm)) [nM],EC50 (P cells) [nM],EC50 (NUCB1) [nM],IC50 (FS MUC1) [nM],EC50 (MUC1-fs; read-out: EC50) [nM],EC50 (MUC1-wt; read-out: WT EC50) [nM],ECMax (%) (MUC1-fs; 48 hr),WT ECMax (%) (MUC1-wt; 48 hr),Stability/expiration date [1],NUCB1 Intensity Avg Emax (NUCB1),FS MUC1 Spot Cytoplasm Avg Emax (FS MUC1),Emax (MUC1-fs; [2]),WT EMax (MUC1-wt; [2])
"CC[C@@]1(C)[C@H]2CC[C@H](C2)[C@H]1N (single isomer, unassigned) [Compound 203-P1]",50,2700,40,,,,,−76.02,91.48,Stable when refrigerated and at room temperature for few hours,,,,
N[C@]1(c2ccccc2)[C@@H]2CC[C@@H](C2)C12CCCC2 (racemic) [Compound 252],,,,11200,7830,,,,,,−72.37,−86.32,,
"CC1(C)[C@H]2CC[C@H](C2)[C@@]1(C)N (racemic) [Compound 242, rac-2,3,3-trimethylbicyclo[2.2.1]heptan-2-amine hydrochloride]",,,,4930,2430,2430,> 16000,,,,−85.46,−67.4,−67.4,27.7
"C[C@]1(N)C[C@H]2CC[C@@H]1C2 (single isomer, unassigned) [Compound 253]",,,,,8580,,,,,,−21.51,−52.28,,
